System: ICR mouse skin
Assay: Mouse skin penetration experiment, Franz diffusion cell
Type: in vitro ADME, ICR outbred albino mice
Conditions: after 24 hr
Description: In order to evaluate the transdermal penetration rate of the micelle nanoparticles of Example 1, a mouse skin penetration experiment was performed through a Franz diffusion cell using the micelle nanoparticles as a sample. The mouse skin was extracted from the back of ICR outbred albino mice (12-week-old, about 50 g, females), which were killed by cervical dislocation. The subcutaneous fat was removed from the extracted skin (1.5 cm×1.5 cm) so that the skin was not hurt, and the dermis was used without being removed. The skin was fixed between the donor and the receptor phase so that the stratum corneum part of the back skin of the prepared ICR mice faced upwards.
The transepidermal area contacting the receptor phase was 0.6362 cm^2, and the receptor phase was a mixed solution of 2.0% HCO-60 (in 20% ethanol), showing the highest solubility in the preliminary experiments. 5 ml of the receptor phase was placed in a Franz diffusion cell, and the temperature was maintained at 37.0±0.5° C. using a constant-temperature water bath. Stirring to homogeneity was performed at 150 rpm for 24 hr. 0.5 ml of each sample was applied to the transepidermal surface of the donor, after which 0.75 ml of the receptor phase was collected every 8 hr (a total of 3 times) for 24 hr through a sampling port using a 1 ml syringe and stored in a 1.5 ml tube. Immediately after collection, supplementation with the same amount of the receptor solution was conducted. As such, the collected sample was analyzed through HPLC in order to quantify […] therein.
In order to measure the amount of PhS1P remaining on the skin, unpenetrated samples were washed three times with PBS immediately after taking the skin out of the diffusion cell. […] The ethanol was evaporated to dryness, after which PhS1P was dissolved again in 0.75 ml of ethanol, and the amount of PhS1P remaining on the skin was quantified through HPLC. […]

## CCCCCCCCCCCCCC[C@@H](O)[C@@H](O)[C@@H](N)COP(=O)(O)O [PhS1P solution, phytosphingosine-1-phosphate]
  amount of PhS1P remaining in the stratum corneum (tape stripping): 1.81 µg
Receptor phase sampled every 8 hr, 0.5 ml sample
  amount of PhS1P that penetrated the skin (final cumulative): 2.52 µg
tape-stripped skin
  amount of PhS1P present in the skin: 2.72 µg
